Measurements reported in patent US10647737B2, “Sulfated-glycolipids as adjuvants for vaccines” (National Research Council of Canada, priority 2014, dated 2020).
Values joined by “and” are separate entries in the source; they are usually repeats but may differ in a detail not shown here. Equal entries are not always repeated. One block for each compound: values may come before it.

Assays:
[1] = Average diameter of archaeosomes (Malvern Nano Zetasizer); format: physicochemical
Procedure: (§1) In one method, archaeosomes were formed by hydrating 20-30 mg dried lipid at 40° C. in 2 ml PBS buffer (10 mM sodium phosphate, 160 mM NaCl, pH 7.1) with the protein antigen OVA dissolved at 10 mg/ml. Vesicle size was reduced to about 100-150 nm diameter by brief sonication in a sonic bath (Fisher Scientific), and the portion of OVA antigen not entrapped was removed by centrifugation from 7 ml PBS followed by 2 washes (200,000×g max for 30 min). Vesicle pellets were resuspended in 2-2.5 ml PBS and filter sterilized through 0.45 μm Millipore filters. Sterile conditions and pyrogen-free water was used throughout.
(§2) Quantification of antigen loading was conducted by separating protein(s) from lipids using SDS polyacrylamide gel electrophoresis as described (Sprott, G. D., Patel, G. B., and Krishnan, L. 2003. Methods Enzymol, 373:155-172). Loading of synthetic archaeosomes with antigens was also determined using SDS Lowry with standard curves prepared for the respective antigen. Loading was based on μg protein/mg salt corrected dry weight of lipid. Average diameters based on Intensity and Zeta potentials were measured using a Malvern Nano Zetasizer with a He/Ne laser (Spectra Research Corp., Ontario, Canada).

[2] = Archaeosome formation by hydration of dried lipid; format: physicochemical; conditions: lipid hydrated in PBS with antigen
Procedure: as §1
In another method, lipids dissolved in t-butanol/water received antigen dissolved in an equal volume of water. The sample was then lyophilized to a powder and rehydrated in PBS buffer. Size was reduced, antigen not entrapped was removed, and filtration conducted as above.

[3] = test system: anti OVA antibody (IgG); experiment: Anti-OVA antibody titre in sera of immunized mice (Elisa); format: in vivo; conditions: OVA-archaeosomes, immunized day 0 and 21; FIG. 13
Procedure: (§3) C57BL6 female mice ([…]) were immunized subcutaneously with 0.1 ml vaccines containing the equivalent of 20 μg OVA, often entrapped in archaeosomes of various compositions, A booster consisting of the same vaccine and route was given most often on week 3. In experiments addressing ability of archaeosomes to evoke immune response to a cancer self-antigen, TRP or Gp100 antigen in archaeosomes was administered at a dose of 15 μg antigen per injection and booster given on week 3.5 and week 8.5. In some experiments an additional third injection was given (˜95 days after first dose). All protocols and SOPs were approved by the NRC Animal Care Committee and conducted within the guidelines of the Canadian Council on Animal Care.
(§4) As a measure of CD4^+ T cell response, antibody raised to the antigen in the vaccine and present in the sera of mice (5-6 mice/group), was quantified by Elisa according to a previous description (Krishnan, L., Dicaire, C. J., Patel, G. B., and Sprott, G. D. 2000. Infect, Immun. 68:54-63). The CD8^+ T cell response was quantified by sacrificing 2 mice/group and pooling their splenic cells. These were assayed in triplicate for antigen-specific responses by Elispot and CTL methods (Krishnan, L., Sad, S., Patel, G. B., and Sprott, G. D. 2003. Cancer Res. 63:2526-2534).

[4] = test system: EL-4+TRP target cells; experiment: CD8+ T cell response (ELISPOT, CTL) to cancer self-antigen TRP / Gp100 delivered in archaeosomes; format: in vivo, mice; conditions: TRP-liposomes; 15.5 weeks; FIG. 12
Procedure: as §3, with “All protocols and SOPs were approved by the NRC Animal Care Committee and conducted within the guidelines of the Canadian Council on Animal Care.” left out
as §4, with “These were assayed in triplicate for antigen-specific responses by Elispot and CTL methods (Krishnan, L., Sad, S., Patel, G. B., and Sprott, G. D. 2003. Cancer Res. 63:2526-2534).” left out
Peptides HLA.A2/H-2K^b TRP-2180-188 (SVYDFFVWL), CTL epitope from tyrosinase related protein-2 and Gp10025-35 (KVPRNQDWL) from human melanoma antigen Gp100 were synthesized. […] Quantification was done using a calibration curve based on known amounts of each of the respective peptides. […]

[5] = Antigen loading of archaeosomes (SDS PAGE / SDS Lowry); format: physicochemical; conditions: OVA antigen entrapped in archaeosomes
Procedure: as §1
In another method, lipids dissolved in t-butanol/water received antigen dissolved in an equal volume of water. The sample was then lyophilized to a powder and rehydrated in PBS buffer. […]
as §2, with “Loading was based on μg protein/mg salt corrected dry weight of lipid.” left out

[6] = test system: CD8^+ T cell response; experiment: Elispot of IFN-γ-secreting splenic cells of mice immunized with OVA-archaeosomes; format: in vivo; conditions: OVA-loaded archaeosomes s.c. at 0 and 3 weeks; 6 weeks post first injection; FIG. 2
Procedure: as §3, with “All protocols and SOPs were approved by the NRC Animal Care Committee and conducted within the guidelines of the Canadian Council on Animal Care.” left out
as §4, with “These were assayed in triplicate for antigen-specific responses by Elispot and CTL methods (Krishnan, L., Sad, S., Patel, G. B., and Sprott, G. D. 2003. Cancer Res. 63:2526-2534).” left out
In a first example, adjuvant activity of the natural sulfated glycolipid purified from Haloferax volcanii (6′-HSO3-D-Manp-α-1,2-D-Glcp-α-1,1-archaeol) was compared to a synthetic 6′-S-lactosylarchaeol, not found in nature. […] CD8^+ T cell responses measured by Elispot splenic cell assays. […]

Structure (SMILES): CC(C)CCCC(C)CCCC(C)CCCC(C)CCOCC(CO[C@@H]1OC(CO)[C@@H](O[C@@H]2OC(COS(=O)(=O)[O+]=[Na])[C@H](O)[C@H](O)C2O)[C@H](O)C1O)OCCC(C)CCCC(C)CCCC(C)CCCC(C)C (stereo partly drawn) [SLA, (2R)-2,3-Bis[(3R,7R,11R)-3,7,11,15-tetramethylhexadecyloxy]propan-1-yl 4-O-(6-O-sulfo-β-D-galactopyranosyl)-β-D-glucopyranoside]
- Average Diameter (nm) 12 weeks ([1]; 12 weeks storage): 176 nm
- Average Diameter (nm) 20 weeks ([1]; 20 weeks storage): 168 nm
- Average Diameter (nm) At first injection ([1]; at first injection): 172 nm and 168 nm
- archaeosome vesicle formation / hydrating ability [2]: excellent hydrating ability
- antibody response to OVA in serum [3]: strong antibody response
- adjuvant activity and CD8+ T cell response, archaeol from H. salinarum versus H. volcanii [4]: equally effective
- Loading (μg antigen/mg archaeosome) [5]: 35.0 μg antigen/mg archaeosome and 22.0 μg antigen/mg archaeosome
- CD8+ T cell response, frequency of IFN-γ-secreting splenic cells (Elispot) [6]: highest response

Structure (SMILES): CC(C)CCCC(C)CCCC(C)CCCC(C)CCOCC(CO[C@@H]1O[C@H](CO)[C@@H](O[C@@H]2O[C@H](COS(=O)(=O)O)[C@H](OS(=O)(=O)O)[C@H](O)[C@H]2O)[C@H](O)[C@H]1O)OCCC(C)CCCC(C)CCCC(C)CCCC(C)C (stereo partly drawn) [di-sulfated LA, 4′-6′-disulfate-β-D-Galp-(1,4)-β-D-Glcp-(1,1)-archaeol]
- antibody response to OVA in serum [3]: strong antibody response

Structure (SMILES): CC(C)CCCC(C)CCCC(C)CCCC(C)CCOCC(CO[C@@H]1O[C@H](CO)[C@@H](O[C@@H]2O[C@H](CO[C@@H]3O[C@H](COS(=O)(=O)O)[C@@H](O)[C@H](O)[C@H]3O)[C@H](O)[C@H](O)[C@H]2O)[C@H](O)[C@H]1O)OCCC(C)CCCC(C)CCCC(C)CCCC(C)C (stereo partly drawn) [sulfated-trisaccharide archaeol, 6′-sulfated β-D-Glcp-(1,6)-β-D-Galp-(1,4)-β-D-Glcp-(1,1)-archaeol]
- antibody response to OVA in serum [3]: strong antibody response

- archaeosome vesicle formation / hydrating ability [2]: did not form
Structure (SMILES): CC(C)CCCC(C)CCCC(C)CCCC(C)CCOCC(CO[C@@H]1O[C@H](CO[C@@H]2O[C@H](CO[C@@H]3O[C@H](CO)[C@@H](O)[C@H](O)[C@H]3O)[C@@H](O)[C@H](O)[C@H]2O)[C@@H](O)[C@H](O)[C@H]1O)OCCC(C)CCCC(C)CCCC(C)CCCC(C)C (stereo partly drawn) [Glc3A, β-Glcp-(1,6)-β-Glcp-(1,6)-β-D-Glcp-(1,1)-archaeol]

- archaeosome vesicle formation / hydrating ability [2]: did not hydrate well
- archaeosome vesicle formation / hydrating ability ([2]; listed as lactosylarchaeol): did not form
Structure (SMILES): CC(C)CCC[C@@H](C)CCC[C@@H](C)CCC[C@@H](C)CCOC[C@@H](CO[C@@H]1O[C@H](CO)[C@@H](O[C@@H]2O[C@H](CO)[C@H](O)[C@H](O)[C@H]2O)[C@H](O)[C@H]1O)OCC[C@H](C)CCC[C@H](C)CCC[C@H](C)CCCC(C)C [LA, lactosylarchaeol]
